Assay results as given in US20230087844A1, “USE OF N2-QUINCLINE OR ISOQUINOLINE SUBSTITUTED PURINE DERIVATIVES IN CANCER TREATMENT” (SHANGHAI HUAYU BIOTECHNOLOGY CO., LTD., priority 2020, published 2023).
Marks after values point to notes of the source that are not given here.

Experiments:
[1] = test system: A549 human non-small cell lung cancer cells; test: A549 non-small cell lung cancer xenograft in mice; conditions: D0, 3, 6, 9; for T/C: D18
Description: Mice body weights and tumor sizes were measured 2 to 3 times a week. The tumor volume (V) was calculated as (length× width^2)/2. T/C (%) was calculated as (T-T0)/(C-C0)×100, wherein T and C represented the tumor volumes in the administration group and the vehicle group respectively at the end of the experiment, while T0 and C0 represented the tumor volumes in the administration group and the vehicle group respectively at the beginning of the experiment. And RTV was calculated as (Tumor volume at Day N/Tumor volume at Day 0). Mice were sacrificed on Day-14.
BALB/cA-nude mice, 5-6 weeks old, purchased from Shanghai SLAC Laboratory Animal Co., Ltd, were subcutaneously inoculated with A549 human non-small cell lung cancer cells (from ATCC).
Mice body weights and tumor sizes were measured 2 to 3 times a week. The tumor volume, T/C and RTV were calculated as described above. Mice were sacrificed on Day 18.

PDGFR = test: Inhibition of PDGFR phosphorylation; type: biochemical
Excerpt: (§1) FLT3 is a class III receptor tyrosine kinase and plays an important role in hematopoiesis and lymphocyte development. […] Wang et al found over 60% of 82 leukemia cell lines were FLT3 positive (Wang Y et al., (2006) Journal of Experimental Hematology 14(3): 446-449). FLT3-internal tandem duplication (ITD) is the most commonly seen mutation in AML patients, with about 17-34% of AML patients carrying such a mutation (Jia H et al., (2018) Medical Laboratory Science and Clinics 19(5): 39). […] Thus, the compounds of the disclosure with high inhibitory effect on FLT3 function may be good candidates for leukemia treatment.

BT-474 = test: MTT tumor cell proliferation, BT-474; type: cell-based; conditions: Homo sapiens; BT-474, Breast cancer, 72 hour
Description: (§2) as an exemplary compound of formula (I), was tested for its inhibitory effect on tumor cell proliferation in a MTT assay.
(§3) Briefly, cells at the log phase were collected, suspended in the cell culture medium at 4*10^4/ml density, and plated in 96-well plates, 90 μl per well. The plates were kept in a 5% CO2 and 37° C. incubator for 2 hours, and then added with 100 μg/ml, 10 μg/ml, 1 μg/ml, 0.1 μg/ml, 0.01 μg/ml or 0.001 μg/ml Compound A, 4 replicates for each cell at each compound concentration. DMSO was used in the positive control group, and another negative group was also set. After 72 hour incubation in the same incubator, 20 μl 5 mg/ml MTT reagent was added to each well. After another 4 hour incubation, each well was added with 100 μl SDS and further incubated for 12 hours. Absorbance at 570 nm was read in a reader, and IC50 was calculated.

SGC-7901 = test: MTT tumor cell proliferation, SGC-7901; type: cell-based; conditions: Homo sapiens; SGC-7901, Gastric cancer, 72 hour
Description: as §2, §3

MV-4-11 cells = test: MV-4-11 AML xenograft in mice, combination with daunorubicin (Example 8); type: in vivo, BALB-cA nude mice; conditions: 30 mg/kg P.O., D0-10
Description: Mice body weights and tumor sizes were measured twice a week. The tumor volume, T/C and TGI (Tumor growth inhibition=(average tumor volume in vehicle group-average tumor volume in administration group)/average tumor volume in vehicle group ×100%) were calculated. Mice were sacrificed on Day 21. Female BALB-cA nude mice, 6-7 weeks old, purchased from Shanghai Ling-chang Biotech Co., Ltd, were subcutaneously inoculated with MV-4-11 cells (from ATCC). […] Mice body weights and tumor sizes were measured twice a week. The tumor volume, T/C and tumor volume based TGI were calculated as described above. Mice were sacrificed on Day 11.

NCI-H460 = test: MTT tumor cell proliferation, NCI-H460; type: cell-based; conditions: Homo sapiens; NCI-H460, Lung cancer, 72 hour
Description: as §2, §3

H69 = test: Tumor cell death by MTT, H69; type: cell-based, human; conditions: 20 nM
Description: The in vitro inhibitory effect of Compound A alone or in combination with a PARP inhibitor on tumor cell growth was tested using human small cell lung cancer (SCLC) cell lines, including H69 (ATCC® HTB-119™), H526 (ATCC® CRL-5811™) and H446 (TCHu196, National Collection of Authenticated Cell Cultures).
Briefly, the cells were seeded into a 96-well dish with RPMI-1640 (10-040-CV, Coming cellgro) containing 10% fetal bovine serum (10270-106, GIBCO), 1% penicillin and 1% streptomycin (BaSalMedia, S110JV), at an initial density of 3×10^3 cells per well ([…]), and cultured at a 37° C., 5% CO2 humidified incubator for 24 hours. Then, the culture media were added with Compound A (final concentration at 20 nM), olaparib (APEXBIO, A4154, a PARP inhibitor, final concentration at 10 μM), Compound A + olaparib (final concentrations at20 nM and 10 μM), or PBS (vehicle), respectively, and the cells were cultured for 48 hours. Then, cell viability was determined by MTT. The test was done in triplicate.
Cell death rate was calculated by the following formula.
Cell death rate=[1−(ODtest-ODvehicle)]×100%
Cell death rates were analyzed using student's t-test, and group differences were deemed statistically significant when the p-value was lower than 0.05. Zheng-Jun Jin's Q value was calculated using the formula Q=EA+B/(EA+EB-EA×EB) to assess the combined effect of Compound A and the PARP inhibitor, wherein EA+B, EA, and EB referred to the cell death rates caused by the combined treatment, Compound A treatment and PARP inhibitor treatment, respectively. A Q value higher than 1.15 meant a synergistic […] effect.
Another PARP inhibitor, rucaparib (APEXBIO, A4156), was tested alone or with Compound A for inhibitory effect on tumor cell growth, following the protocol of Example 9.

leukemia cell lines = test: MTT tumor cell proliferation, leukemia cell lines (summary); type: cell-based; conditions: summary of Table 2
Description: as §2, §3

U87 = test: MTT tumor cell proliferation, U87; type: cell-based; conditions: Homo sapiens, U-87 MG; U87, Brain glioma, 72 hour
Description: as §2, §3

SNU-5 = test: MTT tumor cell proliferation, SNU-5; type: cell-based; conditions: Homo sapiens; SNU-5, Gastric cancer, 72 hour
Description: as §2, §3

KDR (VEGFR-2) = KDR (VEGFR-2) (Homo sapiens, UniProt P35968); test: Inhibition of KDR phosphorylation; type: biochemical
Chain of KDR (VEGFR-2) (P35968 20-1356, species assumed): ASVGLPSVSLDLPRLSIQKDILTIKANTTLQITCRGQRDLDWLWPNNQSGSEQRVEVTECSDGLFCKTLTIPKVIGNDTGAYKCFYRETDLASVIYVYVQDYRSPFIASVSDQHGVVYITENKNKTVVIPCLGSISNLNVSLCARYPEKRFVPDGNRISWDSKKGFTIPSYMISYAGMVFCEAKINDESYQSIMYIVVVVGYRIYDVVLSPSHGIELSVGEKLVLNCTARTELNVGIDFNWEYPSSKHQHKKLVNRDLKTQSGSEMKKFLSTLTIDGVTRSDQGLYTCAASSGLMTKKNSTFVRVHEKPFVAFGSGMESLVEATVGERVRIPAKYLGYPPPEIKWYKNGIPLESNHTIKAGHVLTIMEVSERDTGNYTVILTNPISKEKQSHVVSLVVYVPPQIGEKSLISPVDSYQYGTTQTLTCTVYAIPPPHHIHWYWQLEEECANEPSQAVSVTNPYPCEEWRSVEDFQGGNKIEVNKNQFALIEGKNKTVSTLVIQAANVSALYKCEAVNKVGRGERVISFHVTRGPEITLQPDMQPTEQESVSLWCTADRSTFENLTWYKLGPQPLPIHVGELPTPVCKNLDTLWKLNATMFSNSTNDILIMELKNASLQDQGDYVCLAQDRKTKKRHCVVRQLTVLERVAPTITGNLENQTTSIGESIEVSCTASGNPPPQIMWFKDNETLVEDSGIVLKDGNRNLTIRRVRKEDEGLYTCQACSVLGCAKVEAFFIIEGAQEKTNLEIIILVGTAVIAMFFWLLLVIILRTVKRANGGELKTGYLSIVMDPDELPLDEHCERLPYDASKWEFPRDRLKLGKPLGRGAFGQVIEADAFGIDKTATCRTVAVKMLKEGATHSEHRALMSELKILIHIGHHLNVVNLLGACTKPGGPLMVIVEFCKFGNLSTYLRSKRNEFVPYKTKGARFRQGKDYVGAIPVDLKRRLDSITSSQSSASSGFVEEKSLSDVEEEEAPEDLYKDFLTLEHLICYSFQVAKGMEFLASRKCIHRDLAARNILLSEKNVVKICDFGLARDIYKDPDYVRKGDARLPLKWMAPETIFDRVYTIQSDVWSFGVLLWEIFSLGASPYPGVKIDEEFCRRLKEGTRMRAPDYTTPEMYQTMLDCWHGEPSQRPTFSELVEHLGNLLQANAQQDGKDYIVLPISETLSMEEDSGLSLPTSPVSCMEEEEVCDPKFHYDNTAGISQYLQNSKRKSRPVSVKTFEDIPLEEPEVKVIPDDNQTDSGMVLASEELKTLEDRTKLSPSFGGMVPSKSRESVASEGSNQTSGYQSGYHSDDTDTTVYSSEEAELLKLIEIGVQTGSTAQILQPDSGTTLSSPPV
Excerpt: as §1

For `c1cnc2ccc(Nc3nc(NC4CC4)c4nc[nH]c4n3)cc2c1` [Compound A], the “RTV at D18” value ([1]; 15 mg/kg P.O.) was 18.67 ± 12.89, the “Tumor volume D0” value ([1]; 15 mg/kg P.O.) was 118 ± 21 mm^3 and the “Tumor volume D18” value ([1]; 15 mg/kg P.O.) was 2135 ± 1279 mm^3. The T/C ([1]; 15 mg/kg P.O.) was 70.8%, the “RTV at D18” value ([1]; 30 mg/kg P.O.) was 12.58 ± 4.38 and the “Tumor volume D0” value ([1]; 30 mg/kg P.O.) was 113 ± 19 mm^3. For the same molecule, the “Tumor volume D18” value ([1]; 30 mg/kg P.O.) was 1449 ± 608 mm^3, the T/C ([1]; 30 mg/kg P.O.) was 47.7* % and the “RTV at D18” value ([1]; 60 mg/kg P.O.) was 9.15 ± 5.33. The “Tumor volume D0” value ([1]; 60 mg/kg P.O.) was 110 ± 11 mm^3, the “Tumor volume D18” value ([1]; 60 mg/kg P.O.) was 1039 ± 669 mm^3 and the T/C ([1]; 60 mg/kg P.O.) was 34.7* %. It also gave an EC50 (PDGFR) of about 1 µM, an IC50 (BT-474) of 4.4 ± 0.4 µM and an IC50 (SGC-7901) of 3.8 ± 0.6 µM. For the same molecule, the T/C (MV-4-11 cells; D11) was 71%, the TGI (MV-4-11 cells; D11) was 29% and the “Tumor volume D0” value (MV-4-11 cells; in mm³) was 150.9. For the same molecule, the “Tumor volume D11” value (MV-4-11 cells; in mm³) was 2076.3, the IC50 (NCI-H460) was 4 ± 0.4 µM and the “Cell Death Rate/% 1” value (H69; 48 hours, Table 10) was 6.75%. For the same molecule, the “Cell Death Rate/% 2” value (H69; 48 hours, Table 10) was 6.48%, the “Cell Death Rate/% 3” value (H69; 48 hours, Table 10) was 6.31% and the “Cell Death Rate/% mean” value (H69; 48 hours, Table 10) was 6.51%. For the same molecule, the “Cell Death Rate/% 1” value (H69; Example 10, Table 11) was 7.36%, the “Cell Death Rate/% 2” value (H69; Example 10, Table 11) was 7.65% and the “Cell Death Rate/% 3” value (H69; Example 10, Table 11) was 7.02%. For the same molecule, the “Cell Death Rate/% mean” value (H69; Example 10, Table 11) was 7.34%, the IC50 (leukemia cell lines) was at most 1.6 µM and the IC50 (U87) was 9.7 ± 7 µM. The IC50 (SNU-5) was 12.1 ± 2 µM and the EC50 (KDR (VEGFR-2)) was about 1 µM.
